# Molecular target: T1, Cytochrome P450cam (CYP101) (Pseudomonas putida, UniProt P00183)
# T1 sequence (P00183 2-415): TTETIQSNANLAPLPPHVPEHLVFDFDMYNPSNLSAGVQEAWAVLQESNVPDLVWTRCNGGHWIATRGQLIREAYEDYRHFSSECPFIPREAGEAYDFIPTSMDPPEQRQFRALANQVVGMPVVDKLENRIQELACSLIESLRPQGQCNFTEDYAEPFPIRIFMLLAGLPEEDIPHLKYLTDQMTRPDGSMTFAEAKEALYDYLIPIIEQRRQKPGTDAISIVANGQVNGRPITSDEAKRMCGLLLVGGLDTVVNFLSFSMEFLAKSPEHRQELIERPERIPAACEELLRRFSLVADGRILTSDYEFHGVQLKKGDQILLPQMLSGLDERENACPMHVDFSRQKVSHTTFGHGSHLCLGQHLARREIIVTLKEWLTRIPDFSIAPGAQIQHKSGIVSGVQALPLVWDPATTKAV
# Experiment: enzyme/DNA film biosensor
# Type: biochemical
row,SMILES,Ki [µM]
1,"O=C(O)Cc1c[nH]cn1 [Imid.4AA, imidazole-4-acetic acid]",142
2,"c1c[nH]cn1 [Imid., imidazole]",245

# Reference: publication PMC2684828 (Analytical chemistry, 2009)
